Results as given in article PMC7347136 (PLoS ONE, 2020).

How the values were obtained:
sensitive AML cell lines = assay: Viacount viability assay by flow cytometry; type: cell-based; settings: Homo sapiens, 6 h pulse, assessed at 48 h, read-out: non-viable cells
Protocol: AML cells were seeded at 5 x 10^5 cells/ml in a 6-well plate and incubated with the test compound or vehicle control (DMSO) for 6, 8 or 10 h. At the end of the incubation period, cells were collected into Falcon tubes, pelleted via centrifugation (5 min at 478 x g), and medium containing compound was aspirated. The cells were resuspended in 4 ml of fresh compound-free medium and returned to the 6-well plates for further incubation. Following compound addition, 100 μl (at 24 h), 75 μl (at 48 h), 50 μl (at 72 h) or 30 μl (at 96 h) of a homogeneous suspension of cells were removed from the culture, made up to 100 μl with medium and mixed with 100 μl Guava Viacount reagent (Millipore, Nottingham, UK) in a 96-well plate. Samples were incubated for 20 min in the dark, mixed and then analyzed by GuavaSoft 2.6 software on the Guava Easycyte 8HT (Millipore). Guava Viacount software was used to gate and calculate the proportion of viable and dead cells in the population.

CDK7/cyclin H1/MAT1 = target: T1, CDK7/cyclin H1/MAT1 (Homo sapiens, UniProt P50613); assay: Kinase assay with recombinant CDK/cyclins (Cyclacel); type: biochemical
T1 construct: purchased Carna Biosciences
Protocol: (§1) Kinase assays for CDK2, CDK4, CDK7 and CDK9 were carried out as described previously using recombinant CDK/cyclins generated at Cyclacel Ltd, Dundee, UK [29, 34, 35].

CDK2/cyclin E = target: T2, CDK2/cyclin E (Homo sapiens, UniProt P24941); assay: as above; type: biochemical
T2 construct: made in house
Protocol: as §1

CDK4/cyclin D3 = target: T3, CDK4/cyclin D3 (Homo sapiens, UniProt P11802); assay: as above; type: biochemical
T3 construct: made in house
Protocol: as §1

CDK7 = target: T4, CDK7 (Homo sapiens, UniProt P50613); assay: Carna kinase panel screen; type: biochemical; settings: read-out: % Inhibition ± SD
T4 construct: purchased Carna Biosciences
Protocol: (§2) IC50 values were determined from a 10-point concentration curve using ATP concentrations approximating Km values. […] The percentage inhibition of each test solution was calculated, which allowed the IC50 value to be determined from concentration versus percentage inhibition curves by fitting to a four parameter logistic curve.

JAK2 = target: T5, JAK2 (Homo sapiens, UniProt O60674); assay: Carna kinase panel screen; type: biochemical; settings: read-out: % Inhibition ± SD
T5 construct: purchased Carna Biosciences
T5 sequence (O60674 whole entry): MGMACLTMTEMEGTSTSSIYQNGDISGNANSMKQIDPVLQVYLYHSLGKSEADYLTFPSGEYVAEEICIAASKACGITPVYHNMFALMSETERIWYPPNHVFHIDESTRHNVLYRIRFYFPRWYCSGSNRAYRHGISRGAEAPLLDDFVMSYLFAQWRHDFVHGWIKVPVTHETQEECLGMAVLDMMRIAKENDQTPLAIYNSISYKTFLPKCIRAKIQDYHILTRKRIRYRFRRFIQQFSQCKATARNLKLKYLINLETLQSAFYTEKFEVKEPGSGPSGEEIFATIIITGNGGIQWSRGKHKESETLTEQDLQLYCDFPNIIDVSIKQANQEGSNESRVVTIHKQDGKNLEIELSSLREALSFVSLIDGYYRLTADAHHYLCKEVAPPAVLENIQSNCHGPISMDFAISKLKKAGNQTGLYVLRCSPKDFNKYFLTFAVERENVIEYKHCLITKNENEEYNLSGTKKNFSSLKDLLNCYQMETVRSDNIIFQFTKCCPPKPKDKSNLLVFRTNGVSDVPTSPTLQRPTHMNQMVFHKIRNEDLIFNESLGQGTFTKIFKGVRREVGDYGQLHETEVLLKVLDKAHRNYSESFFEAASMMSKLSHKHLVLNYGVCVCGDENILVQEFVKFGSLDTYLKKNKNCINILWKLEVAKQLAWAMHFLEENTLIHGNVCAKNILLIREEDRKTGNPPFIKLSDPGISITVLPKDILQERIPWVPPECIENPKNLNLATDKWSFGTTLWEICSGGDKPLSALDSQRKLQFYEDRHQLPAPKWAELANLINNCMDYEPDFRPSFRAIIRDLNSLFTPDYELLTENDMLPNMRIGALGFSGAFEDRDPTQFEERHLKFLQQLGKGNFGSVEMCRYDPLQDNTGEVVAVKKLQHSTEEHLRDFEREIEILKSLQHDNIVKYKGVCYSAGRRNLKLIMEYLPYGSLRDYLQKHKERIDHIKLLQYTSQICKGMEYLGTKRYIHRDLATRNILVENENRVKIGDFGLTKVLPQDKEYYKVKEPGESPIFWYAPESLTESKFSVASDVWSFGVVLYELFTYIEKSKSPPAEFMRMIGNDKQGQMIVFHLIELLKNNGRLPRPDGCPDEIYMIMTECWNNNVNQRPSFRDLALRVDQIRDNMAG
Protocol: as §2

DYRK3 = target: T6, DYRK3 (Homo sapiens, UniProt O43781); assay: Carna kinase panel screen; type: biochemical; settings: read-out: % Inhibition ± SD
T6 construct: purchased Carna Biosciences
Protocol: as §2

BRSK2 = target: T7, BRSK2 (Homo sapiens, UniProt Q8IWQ3); assay: Carna kinase panel screen; type: biochemical; settings: read-out: % Inhibition ± SD
T7 construct: purchased Carna Biosciences
Protocol: as §2

p38a = target: T8, p38a (Homo sapiens, UniProt Q16539); assay: Carna kinase panel screen; type: biochemical; settings: read-out: % Inhibition ± SD
T8 construct: purchased Carna Biosciences
Protocol: as §2

NEK1 = target: T9, NEK1 (Homo sapiens, UniProt Q96PY6); assay: Carna kinase panel screen; type: biochemical; settings: read-out: % Inhibition ± SD
T9 construct: purchased Carna Biosciences
Protocol: as §2

IRAK1 = target: T10, IRAK1 (Homo sapiens, UniProt P51617); assay: Carna kinase panel screen; type: biochemical; settings: read-out: % Inhibition ± SD
T10 construct: purchased Carna Biosciences
T10 sequence (P51617 whole entry): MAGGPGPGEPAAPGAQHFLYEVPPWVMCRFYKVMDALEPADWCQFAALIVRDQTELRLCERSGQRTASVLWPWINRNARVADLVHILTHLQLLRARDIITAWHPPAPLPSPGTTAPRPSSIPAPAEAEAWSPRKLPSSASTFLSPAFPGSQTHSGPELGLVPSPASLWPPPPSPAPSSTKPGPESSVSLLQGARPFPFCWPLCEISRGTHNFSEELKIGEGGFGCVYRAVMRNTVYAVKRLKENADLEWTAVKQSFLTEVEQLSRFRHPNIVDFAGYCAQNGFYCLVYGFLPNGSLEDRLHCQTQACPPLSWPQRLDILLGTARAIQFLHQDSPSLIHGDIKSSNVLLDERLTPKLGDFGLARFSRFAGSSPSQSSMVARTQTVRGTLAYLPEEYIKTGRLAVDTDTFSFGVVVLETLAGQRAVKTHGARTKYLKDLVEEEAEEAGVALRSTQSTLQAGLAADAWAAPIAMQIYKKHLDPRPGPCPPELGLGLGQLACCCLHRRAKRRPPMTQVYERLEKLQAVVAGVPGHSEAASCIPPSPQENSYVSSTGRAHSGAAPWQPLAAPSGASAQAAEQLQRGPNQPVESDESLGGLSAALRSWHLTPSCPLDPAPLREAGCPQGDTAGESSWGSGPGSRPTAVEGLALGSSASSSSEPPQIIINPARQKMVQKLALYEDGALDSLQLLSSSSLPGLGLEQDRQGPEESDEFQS
Protocol: as §2

DLK = target: T11, DLK (Homo sapiens, UniProt Q12852); assay: Carna kinase panel screen; type: biochemical; settings: read-out: % Inhibition ± SD
T11 construct: purchased Carna Biosciences
Protocol: as §2

p38b = target: T12, p38b (Homo sapiens, UniProt Q15759); assay: Carna kinase panel screen; type: biochemical; settings: read-out: % Inhibition ± SD
T12 construct: purchased Carna Biosciences
T12 sequence (Q15759 whole entry): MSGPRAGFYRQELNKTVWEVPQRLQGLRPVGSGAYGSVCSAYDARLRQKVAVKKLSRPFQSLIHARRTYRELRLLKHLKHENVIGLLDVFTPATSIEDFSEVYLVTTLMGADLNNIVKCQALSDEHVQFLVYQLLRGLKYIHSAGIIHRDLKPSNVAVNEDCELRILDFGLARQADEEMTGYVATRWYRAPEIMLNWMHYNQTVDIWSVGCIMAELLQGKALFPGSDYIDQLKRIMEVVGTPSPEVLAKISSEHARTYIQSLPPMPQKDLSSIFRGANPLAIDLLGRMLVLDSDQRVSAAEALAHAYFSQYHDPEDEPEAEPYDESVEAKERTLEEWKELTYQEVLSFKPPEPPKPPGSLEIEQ
Protocol: as §2

FGFR4 = target: T13, FGFR4 (Homo sapiens, UniProt P22455); assay: Carna kinase panel screen; type: biochemical; settings: read-out: % Inhibition ± SD
T13 construct: purchased Carna Biosciences
T13 sequence (P22455 22-802): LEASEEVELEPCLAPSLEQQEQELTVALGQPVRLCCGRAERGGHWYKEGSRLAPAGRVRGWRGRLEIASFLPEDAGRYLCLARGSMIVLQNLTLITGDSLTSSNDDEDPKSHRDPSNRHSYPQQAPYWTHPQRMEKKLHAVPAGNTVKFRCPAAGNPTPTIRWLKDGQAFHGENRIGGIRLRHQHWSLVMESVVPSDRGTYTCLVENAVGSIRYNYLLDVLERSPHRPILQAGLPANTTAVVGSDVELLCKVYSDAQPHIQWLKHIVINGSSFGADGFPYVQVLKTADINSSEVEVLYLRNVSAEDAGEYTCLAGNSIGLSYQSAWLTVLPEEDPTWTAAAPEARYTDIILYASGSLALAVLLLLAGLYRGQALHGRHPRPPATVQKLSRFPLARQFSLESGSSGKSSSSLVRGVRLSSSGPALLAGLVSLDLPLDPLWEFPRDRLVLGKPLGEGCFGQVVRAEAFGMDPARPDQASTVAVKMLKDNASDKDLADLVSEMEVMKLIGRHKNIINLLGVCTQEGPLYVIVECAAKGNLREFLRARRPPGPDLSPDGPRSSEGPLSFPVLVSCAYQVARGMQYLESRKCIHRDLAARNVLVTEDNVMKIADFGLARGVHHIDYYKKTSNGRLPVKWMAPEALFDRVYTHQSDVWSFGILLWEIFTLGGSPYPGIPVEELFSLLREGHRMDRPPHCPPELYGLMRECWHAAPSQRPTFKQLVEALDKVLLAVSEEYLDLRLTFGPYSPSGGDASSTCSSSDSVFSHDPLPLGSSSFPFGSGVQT
Protocol: as §2

KIT[T670I] = target: T14, KIT[T670I] (Homo sapiens, UniProt P10721, T670I); assay: Carna kinase panel screen; type: biochemical; settings: read-out: % Inhibition ± SD
T14 construct: purchased Carna Biosciences
Protocol: as §2

CDK9 = target: T15, CDK9 (Homo sapiens, UniProt P50750); assay: Carna kinase panel screen; type: biochemical; settings: read-out: % Inhibition ± SD
T15 construct: purchased Carna Biosciences
Protocol: as §2

FER = target: T16, FER (Homo sapiens, UniProt P16591); assay: Carna kinase panel screen; type: biochemical; settings: read-out: % Inhibition ± SD
T16 construct: purchased Carna Biosciences
Protocol: as §2

CLK1 = target: T17, CLK1 (Homo sapiens, UniProt P49759); assay: Carna kinase panel screen; type: biochemical; settings: read-out: % Inhibition ± SD
T17 construct: purchased Carna Biosciences
Protocol: as §2

TYRO3 = target: T18, TYRO3 (Homo sapiens, UniProt Q06418); assay: Carna kinase panel screen; type: biochemical; settings: read-out: % Inhibition ± SD
T18 construct: purchased Carna Biosciences
Protocol: as §2

PKACa = target: T19, PKACa (Homo sapiens, UniProt P17612); assay: Carna kinase panel screen; type: biochemical; settings: read-out: % Inhibition ± SD
T19 construct: purchased Carna Biosciences
Protocol: as §2

LIMK1 = target: T20, LIMK1 (Homo sapiens, UniProt P53667); assay: Carna kinase panel screen; type: biochemical; settings: read-out: % Inhibition ± SD
T20 construct: purchased Carna Biosciences
T20 sequence (P53667 whole entry): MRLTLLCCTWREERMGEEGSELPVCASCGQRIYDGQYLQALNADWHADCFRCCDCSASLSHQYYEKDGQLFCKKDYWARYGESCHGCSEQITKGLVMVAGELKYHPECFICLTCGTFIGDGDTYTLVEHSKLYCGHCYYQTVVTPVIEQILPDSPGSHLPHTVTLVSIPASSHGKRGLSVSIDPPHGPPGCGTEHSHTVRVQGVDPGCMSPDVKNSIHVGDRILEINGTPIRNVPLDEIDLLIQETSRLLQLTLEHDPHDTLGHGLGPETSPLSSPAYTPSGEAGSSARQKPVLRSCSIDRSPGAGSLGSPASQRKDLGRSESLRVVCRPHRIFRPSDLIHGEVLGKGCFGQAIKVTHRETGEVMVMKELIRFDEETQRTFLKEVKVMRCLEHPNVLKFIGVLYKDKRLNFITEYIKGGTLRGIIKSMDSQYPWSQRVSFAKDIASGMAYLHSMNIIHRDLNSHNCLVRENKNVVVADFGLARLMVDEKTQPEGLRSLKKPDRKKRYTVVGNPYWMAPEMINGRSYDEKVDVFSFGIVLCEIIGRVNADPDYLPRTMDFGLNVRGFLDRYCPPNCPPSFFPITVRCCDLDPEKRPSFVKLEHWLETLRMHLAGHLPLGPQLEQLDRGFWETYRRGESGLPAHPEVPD
Protocol: as §2

JAK3 = target: T21, JAK3 (Homo sapiens, UniProt P52333); assay: Carna kinase panel screen; type: biochemical; settings: read-out: % Inhibition ± SD
T21 construct: purchased Carna Biosciences
T21 sequence (P52333 whole entry): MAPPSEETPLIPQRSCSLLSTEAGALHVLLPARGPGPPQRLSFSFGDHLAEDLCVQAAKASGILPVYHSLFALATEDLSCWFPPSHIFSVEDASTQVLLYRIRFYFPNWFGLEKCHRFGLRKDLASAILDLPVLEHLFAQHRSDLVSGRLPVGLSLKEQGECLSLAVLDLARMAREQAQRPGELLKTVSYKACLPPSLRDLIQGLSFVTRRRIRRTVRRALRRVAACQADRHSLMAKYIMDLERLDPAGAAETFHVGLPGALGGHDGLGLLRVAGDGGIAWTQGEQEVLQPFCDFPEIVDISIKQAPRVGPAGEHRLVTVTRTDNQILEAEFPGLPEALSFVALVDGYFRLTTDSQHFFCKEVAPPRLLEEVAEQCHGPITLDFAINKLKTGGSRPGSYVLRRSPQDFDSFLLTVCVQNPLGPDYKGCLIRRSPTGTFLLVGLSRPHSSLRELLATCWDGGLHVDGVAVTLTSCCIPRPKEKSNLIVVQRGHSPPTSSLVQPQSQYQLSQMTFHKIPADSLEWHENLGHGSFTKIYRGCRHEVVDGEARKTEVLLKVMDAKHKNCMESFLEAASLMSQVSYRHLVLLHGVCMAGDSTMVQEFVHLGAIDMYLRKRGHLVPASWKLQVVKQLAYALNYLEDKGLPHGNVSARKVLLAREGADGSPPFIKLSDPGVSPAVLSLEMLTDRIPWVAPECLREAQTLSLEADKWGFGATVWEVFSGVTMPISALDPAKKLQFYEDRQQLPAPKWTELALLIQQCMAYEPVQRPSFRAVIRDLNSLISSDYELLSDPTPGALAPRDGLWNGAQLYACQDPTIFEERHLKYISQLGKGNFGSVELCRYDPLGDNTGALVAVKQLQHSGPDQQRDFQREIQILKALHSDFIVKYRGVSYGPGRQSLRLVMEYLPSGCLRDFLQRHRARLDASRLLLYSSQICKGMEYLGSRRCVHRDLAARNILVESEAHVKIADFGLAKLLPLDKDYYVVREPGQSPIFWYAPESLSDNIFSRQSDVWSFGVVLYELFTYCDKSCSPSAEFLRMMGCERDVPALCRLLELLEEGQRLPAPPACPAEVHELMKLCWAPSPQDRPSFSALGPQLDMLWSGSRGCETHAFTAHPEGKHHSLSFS
Protocol: as §2

CK1e = target: T22, CK1e (Homo sapiens, UniProt P49674); assay: Carna kinase panel screen; type: biochemical; settings: read-out: % Inhibition ± SD
T22 construct: purchased Carna Biosciences
Protocol: as §2

JNK1 = target: T23, JNK1 (Homo sapiens, UniProt P45983); assay: Carna kinase panel screen; type: biochemical; settings: read-out: % Inhibition ± SD
T23 construct: purchased Carna Biosciences
Protocol: as §2

PLK3 = target: T24, PLK3 (Homo sapiens, UniProt Q9H4B4); assay: Carna kinase panel screen; type: biochemical; settings: read-out: % Inhibition ± SD
T24 construct: purchased Carna Biosciences
Protocol: as §2

MAP3K3 = target: T25, MAP3K3 (Homo sapiens, UniProt Q99759); assay: Carna kinase panel screen; type: biochemical; settings: read-out: % Inhibition ± SD
T25 construct: purchased Carna Biosciences
Protocol: as §2

PKCd = target: T26, PKCd (Homo sapiens, UniProt Q05655); assay: Carna kinase panel screen; type: biochemical; settings: read-out: % Inhibition ± SD
T26 construct: purchased Carna Biosciences
Protocol: as §2

PHKG1 = target: T27, PHKG1 (Homo sapiens, UniProt Q16816); assay: Carna kinase panel screen; type: biochemical; settings: read-out: % Inhibition ± SD
T27 construct: purchased Carna Biosciences
Protocol: as §2

IKKa = target: T28, IKKa (Homo sapiens, UniProt O15111); assay: Carna kinase panel screen; type: biochemical; settings: read-out: % Inhibition ± SD
T28 construct: purchased Carna Biosciences
Protocol: as §2

NuaK1 = target: T29, NuaK1 (Homo sapiens, UniProt O60285); assay: Carna kinase panel screen; type: biochemical; settings: read-out: % Inhibition ± SD
T29 construct: purchased Carna Biosciences
Protocol: as §2

H23 = assay: Resazurin reduction cell viability assay; type: cell-based, human; settings: 6 h pulse
subcutaneous HL60 tumors = assay: HL-60 human promyelocytic leukemia xenograft model; type: in vivo, athymic NCr-nu/nu mice
Source text: Five-week-old female athymic NCr-nu/nu mice were purchased from Harlan Sprague-Dawley (Prattville, AL). The animals were housed in microisolator cages, with up to five animals per cage in a 12-h light/dark cycle. The animals received filtered water and sterilized rodent diet (Harlan-Teklad TD8656) ad libitum. Each mouse was implanted subcutaneously near the right flank with ten million HL-60 cells using a 23-gauge needle and allowed to grow. Tumors were allowed to reach 75–144 mm^3 in size before treatment initiation. […] The %TGI values were calculated and statistical analyses performed as above.

Structure (SMILES): CC[C@H](Nc1nc(NCc2cnc(C)cc2C)c2ncn(C(C)C)c2n1)[C@@H](C)O [Fadraciclib, 2-pentanol, 3-[[6-[[(4,6-dimethyl-3-pyridinyl)methyl]amino]-9-(1-methylethyl)-9Hpurin-2-yl]amino]-, (2R,3S)]
- cytotoxicity at 1 µM (sensitive AML cell lines): ~100%
- IC50 (CDK7/cyclin H1/MAT1): 0.73 ± 0.16 µM
- IC50 (CDK2/cyclin E): 0.02 ± 0.001 µM
- IC50 (CDK4/cyclin D3): > 10 µM
- inhibition at 1 µM (CDK7): 86.7 ± 10.9%
- inhibition at 1 µM (JAK2): 6.1 ± 0.2%
- inhibition at 1 µM (DYRK3): 0.9%
- inhibition at 1 µM (BRSK2): 1.1%
- inhibition at 1 µM (p38a): -13.3 ± 0.3%
- inhibition at 1 µM (NEK1): -18.3 ± 0.1%
- inhibition at 1 µM (IRAK1): 1.6 ± 0.1%
- inhibition at 1 µM (DLK): 0.8%
- inhibition at 1 µM (p38b): -19 ± 0.2%
- inhibition at 1 µM (FGFR4): -14.8%
- inhibition at 1 µM (KIT[T670I]): -9.2 ± 0.2%
- inhibition at 1 µM (CDK9): 96.6 ± 3.2%
- inhibition at 1 µM (FER): -0.3%
- inhibition at 1 µM (CLK1): 70.2 ± 6.8%
- inhibition at 1 µM (TYRO3): -14.8 ± 0.2%
- inhibition at 1 µM (PKACa): -0.8%
- inhibition at 1 µM (LIMK1): 12.3 ± 0.4%
- inhibition at 1 µM (JAK3): -9.5%
- inhibition at 1 µM (CK1e): 19.8 ± 0.5%
- inhibition at 1 µM (JNK1): -13.5 ± 1.3%
- inhibition at 1 µM (PLK3): 5.7 ± 0.3%
- inhibition at 1 µM (MAP3K3): -2.6 ± 0.1%
- inhibition at 1 µM (PKCd): 28.7 ± 2.7%
- inhibition at 1 µM (PHKG1): -15 ± 0.4%
- inhibition at 1 µM (IKKa): 0%
- inhibition at 1 µM (NuaK1): -2.5%
- IC50, short pulse (H23): submicromolar
- mean body weight loss (subcutaneous HL60 tumors; 70 mg/kg oral (highest dose)): 8%
- tumor growth delay T-C (subcutaneous HL60 tumors; 70 mg/kg oral, 5 days on/2 days off, 2 cycles): > 12.6 days
- TGI (subcutaneous HL60 tumors; 70 mg/kg oral, Day 11): 90%
- tumor regression (subcutaneous HL60 tumors; 70 mg/kg oral, groups of 10 animals): Two animals achieved tumor regression and one was determined to be tumor-free
